ChEMBL document CHEMBL5537150, “Synthesis of melampomagnolide B derivatives as potential anti-Triple Negative Breast Cancer agents” (Eur J Med Chem, 2024)

System: MDA-MB-231
Experiment: Antiproliferative activity against human MDA-MB-231 cells assessed as inhibition of cell growth incubated for 72 hrs by MTT assay
Format: functional, cell-based
Details: MDA-MB-231, 72 h

IC50 [µM]	Structure (SMILES)
12.8	C=C1C(=O)O[C@H]2[C@H]1C(COC(=O)CC1(CC(=O)O)CCCCC1)C/C=C\CC[C@@]1(C)O[C@@H]21 (some centres not stated)
35.8	C=C1C(=O)O[C@H]2[C@H]1C(COC(=O)CC1(CC(=O)O)CCCC1)C/C=C\CC[C@@]1(C)O[C@@H]21 (some centres not stated)
1.39	C=C1C(=O)O[C@H]2[C@H]1CC/C(C(=O)Oc1ccc(-c3cc(=S)ss3)cc1)=C\CC[C@@]1(C)O[C@@H]21
1.68	C=C1C(=O)O[C@H]2[C@H]1C(COC(=O)CC(C)(C)CC(=O)Oc1ccc(-c3cc(=S)ss3)cc1)C/C=C\CC[C@@]1(C)O[C@@H]21 (some centres not stated)
> 50	C=C1C(=O)O[C@H]2[C@H]1C(COC(=O)CCCCC(=O)O)C/C=C\CC[C@@]1(C)O[C@@H]21 (some centres not stated)
6.11	C=C1C(=O)O[C@H]2[C@H]1C(COC(=O)/C=C/c1ccc(OCc3ccc(-c4cc(=S)ss4)cc3)cc1)C/C=C\CC[C@@]1(C)O[C@@]21C (some centres not stated)
7.58	C=C1C(=O)O[C@H]2[C@H]1C(COC(=O)c1cc3ccccc3cc1C(=O)Oc1ccc(-c3cc(=S)ss3)cc1)C/C=C\CC[C@@]1(C)O[C@@H]21 (some centres not stated)
> 50	C=C1C(=O)O[C@H]2[C@H]1C(COC(=O)CCC(=O)O)C/C=C\CC[C@@]1(C)O[C@@]21C (some centres not stated)
2.91	C=C1C(=O)O[C@H]2[C@H]1C(COC(=O)c1ccccc1C(=O)Oc1ccc(-c3cc(=S)ss3)cc1)C/C=C\CC[C@@]1(C)O[C@@H]21 (some centres not stated)
2.35	C=C1C(=O)O[C@H]2[C@H]1CC/C(C(=O)OCCOc1ccc(-c3cc(=S)ss3)cc1)=C\CC[C@@]1(C)O[C@@H]21
4.96	C=C1C(=O)O[C@H]2[C@H]1C(COC(=O)c1cc3ccccc3cc1C(=O)O)C/C=C\CC[C@@]1(C)O[C@@H]21 (some centres not stated)
1.76	C=C1C(=O)O[C@H]2[C@H]1C(COC(=O)CC1(CC(=O)Oc3ccc(-c4cc(=S)ss4)cc3)CCCCC1)C/C=C\CC[C@@]1(C)O[C@@H]21 (some centres not stated)
